Laboratory results taken from PMC10465358 (Nature Microbiology, 2023).

Tests used:
[1] = molecular target: T1, P. bivia PulA (Prevotella bivia, UniProt I4Z8K5); experiment: BODIPY fluorescent starch amylase assay with purified enzyme; type: biochemical
T1 construct: gene PrebiDRAFT_0808
Text: BODIPY fluorescent starch amylase assay with purified enzyme on P. bivia PulA | Acarbose inhibited G. vaginalis PulA, P. bivia PulA and P. bivia GH13 enzymes

[2] = molecular target: T2, G. vaginalis PulA (Gardnerella vaginalis, UniProt A0ACD7VVB6); experiment: fluorescent (BODIPY) starch hydrolysis; type: biochemical; settings: BODIPY starch substrate; 15 min preincubation; 37 °C; pH not stated; error is 95% confidence interval
T2 construct: gene GAVG_1021; signal peptide removed, N-terminal His6 (pET28a, pETpullGV), E. coli ArcticExpress (DE3), 219 kDa, two alpha-amylase (GH13) domains (D233, D1317)
T2 sequence (A0ACD7VVB6 34-2012): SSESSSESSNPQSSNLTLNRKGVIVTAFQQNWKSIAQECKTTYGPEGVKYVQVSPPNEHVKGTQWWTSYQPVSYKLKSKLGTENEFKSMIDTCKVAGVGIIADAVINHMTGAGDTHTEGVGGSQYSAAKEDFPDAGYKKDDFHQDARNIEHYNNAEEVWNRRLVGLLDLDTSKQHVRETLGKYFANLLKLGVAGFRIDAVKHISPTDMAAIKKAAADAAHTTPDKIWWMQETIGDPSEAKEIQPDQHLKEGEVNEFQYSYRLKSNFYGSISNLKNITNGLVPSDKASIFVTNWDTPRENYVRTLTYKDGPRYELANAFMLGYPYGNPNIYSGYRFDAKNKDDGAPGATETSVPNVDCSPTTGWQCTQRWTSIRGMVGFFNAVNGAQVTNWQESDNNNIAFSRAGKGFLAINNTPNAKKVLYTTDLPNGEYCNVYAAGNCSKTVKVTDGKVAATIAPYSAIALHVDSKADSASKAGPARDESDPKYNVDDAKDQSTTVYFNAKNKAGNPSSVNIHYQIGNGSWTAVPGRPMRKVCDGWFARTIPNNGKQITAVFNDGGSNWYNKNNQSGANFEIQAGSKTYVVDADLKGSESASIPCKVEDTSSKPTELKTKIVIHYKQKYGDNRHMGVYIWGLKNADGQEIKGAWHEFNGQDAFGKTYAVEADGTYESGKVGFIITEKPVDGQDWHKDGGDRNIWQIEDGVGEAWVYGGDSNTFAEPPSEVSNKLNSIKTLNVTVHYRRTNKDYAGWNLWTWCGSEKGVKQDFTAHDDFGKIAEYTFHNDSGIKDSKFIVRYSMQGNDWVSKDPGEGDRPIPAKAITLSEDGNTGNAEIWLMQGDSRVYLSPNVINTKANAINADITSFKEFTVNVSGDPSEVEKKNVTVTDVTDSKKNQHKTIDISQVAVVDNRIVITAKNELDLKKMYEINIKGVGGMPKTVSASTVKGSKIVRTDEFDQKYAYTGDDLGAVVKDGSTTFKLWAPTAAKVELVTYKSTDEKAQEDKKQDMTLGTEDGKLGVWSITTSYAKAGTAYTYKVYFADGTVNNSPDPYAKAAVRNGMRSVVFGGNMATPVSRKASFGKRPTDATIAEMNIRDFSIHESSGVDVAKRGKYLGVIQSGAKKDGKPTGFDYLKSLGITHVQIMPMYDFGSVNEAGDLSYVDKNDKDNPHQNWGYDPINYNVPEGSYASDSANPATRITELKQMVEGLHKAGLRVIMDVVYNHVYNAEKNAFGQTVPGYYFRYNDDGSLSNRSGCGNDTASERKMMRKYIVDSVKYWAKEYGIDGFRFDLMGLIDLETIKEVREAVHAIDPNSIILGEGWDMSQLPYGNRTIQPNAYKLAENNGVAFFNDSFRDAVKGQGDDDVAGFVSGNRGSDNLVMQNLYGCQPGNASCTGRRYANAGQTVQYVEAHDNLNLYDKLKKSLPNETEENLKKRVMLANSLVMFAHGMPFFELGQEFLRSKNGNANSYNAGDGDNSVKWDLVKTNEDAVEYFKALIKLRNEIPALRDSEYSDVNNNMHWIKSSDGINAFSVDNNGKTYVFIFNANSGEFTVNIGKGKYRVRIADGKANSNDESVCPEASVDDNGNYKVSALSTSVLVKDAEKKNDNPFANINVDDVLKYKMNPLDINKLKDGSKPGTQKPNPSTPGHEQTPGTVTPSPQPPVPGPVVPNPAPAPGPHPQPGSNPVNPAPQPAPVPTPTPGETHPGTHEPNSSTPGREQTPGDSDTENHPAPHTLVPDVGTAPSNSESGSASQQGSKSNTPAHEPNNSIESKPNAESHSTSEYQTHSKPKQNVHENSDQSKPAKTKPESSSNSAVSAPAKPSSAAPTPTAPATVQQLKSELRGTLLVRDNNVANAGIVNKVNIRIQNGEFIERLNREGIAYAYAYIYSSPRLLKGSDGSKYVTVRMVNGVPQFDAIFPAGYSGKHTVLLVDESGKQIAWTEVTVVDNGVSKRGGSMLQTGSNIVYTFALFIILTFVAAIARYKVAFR
Text: fluorescent (BODIPY) starch hydrolysis on G. vaginalis PulA | Acarbose inhibited G. vaginalis PulA, P. bivia PulA and P. bivia GH13 enzymes

T1 sequence (I4Z8K5 23-637 limits assumed): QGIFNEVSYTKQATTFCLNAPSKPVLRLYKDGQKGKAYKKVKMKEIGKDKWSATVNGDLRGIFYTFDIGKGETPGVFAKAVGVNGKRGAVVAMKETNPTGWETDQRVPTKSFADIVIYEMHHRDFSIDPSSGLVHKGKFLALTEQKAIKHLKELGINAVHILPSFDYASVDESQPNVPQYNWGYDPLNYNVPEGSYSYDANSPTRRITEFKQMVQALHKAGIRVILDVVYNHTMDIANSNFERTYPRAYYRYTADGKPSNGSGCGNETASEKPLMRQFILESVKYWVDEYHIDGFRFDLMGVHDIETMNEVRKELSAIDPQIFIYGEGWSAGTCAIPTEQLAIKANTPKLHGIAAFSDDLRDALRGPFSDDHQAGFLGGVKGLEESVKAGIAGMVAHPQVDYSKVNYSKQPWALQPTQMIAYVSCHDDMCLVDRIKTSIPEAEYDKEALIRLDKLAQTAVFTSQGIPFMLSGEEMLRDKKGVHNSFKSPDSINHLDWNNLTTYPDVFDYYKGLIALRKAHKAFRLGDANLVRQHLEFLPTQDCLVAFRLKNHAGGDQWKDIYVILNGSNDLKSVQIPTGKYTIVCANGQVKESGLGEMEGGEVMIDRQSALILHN

C[C@H]1O[C@H](O[C@H]2[C@H](O)[C@@H](O)[C@@H](O[C@H]3[C@H](O)[C@@H](O)C(O)O[C@@H]3CO)O[C@@H]2CO)[C@H](O)[C@@H](O)[C@@H]1N[C@H]1C=C(CO)[C@@H](O)[C@H](O)[C@H]1O (some centres unmarked) [acarbose]
IC50 [1]: 420 ± 90 µM | IC50 [2]: 120 ± 30 µM
